Reference: ChEMBL document CHEMBL1938342 (J Med Chem, 2011)
pKi: −log10 of the molar value. Activity calls are given as the source filed them. No cut-off for these calls is given here.

Experiments:
[1] = molecular target: Carbonic anhydrase 1 (Homo sapiens, UniProt P00915); assay: Inhibition of human full-length cytosolic CA1 after 6 hrs by stopped flow CO2 hydration assay
[2] = molecular target: Carbonic anhydrase 12 (Homo sapiens, UniProt O43570); assay: Inhibition of human recombinant CA12 after 6 hrs by stopped flow CO2 hydration assay
Carbonic anhydrase 12, sequence (O43570 whole entry): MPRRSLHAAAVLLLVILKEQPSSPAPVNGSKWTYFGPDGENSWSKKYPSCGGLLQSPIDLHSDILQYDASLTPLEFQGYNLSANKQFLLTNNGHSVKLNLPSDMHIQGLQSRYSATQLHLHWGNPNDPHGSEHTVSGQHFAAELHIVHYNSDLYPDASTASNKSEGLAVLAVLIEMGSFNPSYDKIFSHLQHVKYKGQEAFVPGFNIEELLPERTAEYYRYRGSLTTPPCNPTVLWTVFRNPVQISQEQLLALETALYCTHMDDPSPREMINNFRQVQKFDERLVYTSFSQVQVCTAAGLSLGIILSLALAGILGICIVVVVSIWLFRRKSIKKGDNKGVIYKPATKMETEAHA

[3] = molecular target: Carbonic anhydrase 2 (Homo sapiens, UniProt P00918); assay: Inhibition of human full-length cytosolic CA2 after 6 hrs by stopped flow CO2 hydration assay
[4] = molecular target: Carbonic anhydrase 9 (Homo sapiens, UniProt Q16790); assay: Inhibition of human recombinant CA9 after 6 hrs by stopped flow CO2 hydration assay
[5] = test system: 4T1; assay: Anticancer activity against mouse 4T1 cells expressing CA9 xenografted in BALB/c mouse assessed as tumor growth inhibition at 30 mg/kg, iv administered on days 11,13,16 and 19
[6] = test system: Mus musculus; assay: Toxicity in mouse 4T1 cells expressing CA9 xenografted BALB/c mouse assessed as weight loss at 30 mg/kg, iv administered on days 11,13,16 and 19; details: in vivo
[7] = test system: Mus musculus; assay: Toxicity in mouse 4T1 cells expressing […] xenografted BALB/c mouse assessed as mortality at 30 mg/kg, iv administered on days 11,13,16 and 19; assay type: organism-based; set-up: dose 30 mg/kg, route intravenous; details: in vivo

Carbonic anhydrase 1, sequence (P00915 whole entry): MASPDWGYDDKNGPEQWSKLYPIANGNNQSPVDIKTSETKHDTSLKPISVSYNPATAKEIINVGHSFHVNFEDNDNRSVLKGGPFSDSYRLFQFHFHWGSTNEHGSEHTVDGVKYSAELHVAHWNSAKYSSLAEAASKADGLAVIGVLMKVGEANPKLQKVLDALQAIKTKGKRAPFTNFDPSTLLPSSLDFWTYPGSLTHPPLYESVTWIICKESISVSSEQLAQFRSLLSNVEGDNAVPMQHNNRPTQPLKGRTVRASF

Compound | pKi [1] | pKi [2] | pKi [3] | pKi [4] | growth inhibition (GI) [5] | Activity [6] | Activity [7]
Cc1cc(=O)oc2cc(O[C@@H]3O[C@H](CO)[C@@H](O)[C@H](O)[C@H]3O)ccc12 | 6.00 | 7.27 | < 4.00 | 6.43 |  |  | 
Cc1cc(=O)oc2cc(O[C@@H]3O[C@H](CO[C@H]4O[C@H](CO)[C@H](O)[C@H](O)[C@H]4O)[C@@H](O)[C@H](O)[C@H]3O)ccc12 | 6.06 | 7.00 | 6.23 | 6.09 |  |  | 
Cc1cc(=O)oc2cc(O)ccc12 [HYMECROMONE] | < 4.00 | 5.09 | < 4.00 | 6.25 |  |  | 
Cc1cc(=O)oc2cc(O[C@@H]3O[C@H](CO)[C@H](O)[C@H](O)[C@H]3O)ccc12 | 6.23 | 8.07 | 4.11 | 7.03 |  |  | 
Cc1cc(=O)oc2cc(O[C@@H]3O[C@@H](C)[C@H](O)[C@@H](O)[C@H]3O)ccc12 | < 4.00 | 6.74 | < 4.00 | 6.70 |  |  | 
Cc1cc(=O)oc2cc(O[C@H]3O[C@H](CO)[C@@H](O)[C@H](O)[C@@H]3O)ccc12 | < 4.00 | 7.37 | < 4.00 | 8.04 | Active | Non-toxic | Non-toxic
